Measured values from US20130296425A1, “PROPHYLACTIC OR THERAPEUTIC AGENT FOR A PERIPHERAL NERVE DISORDER INDUCED BY ANTI-CANCER AGENTS” (NAGOYA INDUSTRIAL SCIENCE RESEARCH INSTITUTE, priority 2011, published 2013).

Key:
[1] = system: paclitaxel-induced peripheral nerve disorder rats; assay: Single intraperitoneal administration, hyperalgesia induced by paclitaxel (von Frey test); type: in vivo; conditions: Rattus norvegicus, ip, single i.p. dose 0.3 mg/kg, higher of the values after 1 hour and 5 hours, read-out: Recovery rate of 50% reaction threshold value (%)
Description: Male SD rats in six weeks age (one group comprised six rats) were used as experimental animals and the paclitaxel-induced peripheral nerve disorder rats were prepared in the same manner as in the above 1.[1](2). The test drug was administered intraperitoneally in a single dose so as to make it 0.3 mg/kg in any of the cases during the period of 18 to 25 days or 20 to 27 days after initiation of administration of paclitaxel.
A von Frey test was conducted in the same manner as in the above 1.[1](4) using the rats mentioned in the above (1) and each 50% reaction threshold value was measured. With regard to the higher 50% reaction threshold value between the 50% reaction threshold values after 1 hour and 5 hours from administration of a test drug, a recovery rate (%) of the 50% reaction threshold value was calculated.
Recovery rate (%) of 50% reaction threshold value={[(50% reaction threshold value after 1 hour or 5 hours from administration of test drug)−(50% reaction threshold value before administration of test drug)]÷[(Normal threshold value)−(50% reaction threshold value before administration of test drug)]}×100

[2] = system: paclitaxel-induced peripheral nerve disorder rats; assay: Repeated intraperitoneal administration, hyperalgesia by paclitaxel (von Frey test); type: in vivo, rat; conditions: prophylactic i.p. 0.50 mg/kg/day, paclitaxel; male SD rats
Description: With regard to male SD rats of six weeks age used as the experimental animals, their 50% reaction threshold values to the mechanical stimulus (the measuring method will be mentioned later) and body weights were measured and then the following seven groups each comprising eight rats was organized. • Normal control group • Onset control group • Prophylactic administration group with 0.25 mg/kg/day of a test drug • Prophylactic administration group with 0.50 mg/kg/day of a test drug • Therapeutic administration group with 0.25 mg/kg/day of a test drug • Therapeutic administration group with 0.50 mg/kg/day of a test drug • Therapeutic administration group with 30 mg/kg/day of gabapentin (positive control)
Taxol (registered trademark) injection 30 mg (manufactured by Bristol-Myers Squibb) containing 6 mg/mL of paclitaxel was used. To the rats of each of the above groups except the normal control group was intraperitoneally administered paclitaxel diluted to 2 mg/mL with saline in a dose of 2 mg/kg four times every other day whereupon the paclitaxel-induced peripheral nerve disorder rats were prepared. To the normal control group, an equivalent mixture of ethanol and Cremophor EL (registered trademark; manufactured by Sigma; a solvent for Taxisol (registered trademark) injection) diluted with saline to an extent of 3-fold was administered similarly.
To prophylactic administration groups of a test drug, the compound 4 in a dose of 0.25 mg/kg/day or 0.50 mg/kg/day was repeatedly administered intraperitoneally since immediately after initiation of administration of paclitaxel until 13 days thereafter. Meanwhile, to therapeutic administration groups of a test drug and to a therapeutic administration group of gabapentin, the compound 4 in a dose of 0.25 mg/kg/day or 0.50 mg/kg/day or gabapentin in a dose of 30 mg/kg/day, respectively was repeatedly administered intraperitoneally during the period of from 14 days to 42 days after initiation of the administration of paclitaxel.
The seven groups of rats of the above (1) were placed in a transparent acrylic cage with a wire-meshed floor and habituated for about three minutes and the 50% reaction threshold values to the mechanical stimulus of right hind limb were measured after 3, 7, 14, 21, 28, 35 and 42 days from initiation of the administration of paclitaxel. Incidentally, during the period of administration of a test drug, its values were measured after 24 hours from the last administration of a test drug.
The measurement was conducted using von Frey filaments (manufactured by North Coast Medical Inc.) in accordance with the methods of Chaplan, et al. (Journal of Neuroscience Methods, vol. 53, no. 1, pages 55 to 63, 1994) and Dixon, et al. (Annual Review of Pharmacology and Toxicology, vol. 20, pages 441 to 462, 1980). […] The case where the rat escaped at the instance of removing the filament was also called positive. When the positive reaction was noted, stimulus was conducted similarly using a filament of one rank weaker while, when no reaction was noted, stimulus was conducted similarly using a filament of one rank stronger and the point when the reaction changed from negative to positive or from positive to negative was called the first two reactions. […] A 50% reaction threshold value to the mechanical stimulus was measured using the reaction to the six stimuli in total and then (mean value) ± (standard error) for each group was calculated. […]

Row | Compound | inhibition in vivo at 0.3 mg/kg [1] | 50% reaction threshold values to the mechanical stimulus vs onset control group [2]
1 | CCCCCCCCCC(=O)OCC [Compound 2, Decanoic acid ethyl ester] | 22.9% | 
2 | CCCCCCC/C=C/C(=O)OC [Compound 3, Trans-2-decenoic acid methyl ester] | 63.2% | 
3 | CCCCCCC/C=C/C(=O)OCCC [Compound 5, Trans-2-decenoic acid propyl ester] | 71.2% | 
4 | CCCCCCC/C=C/C(=O)OC(C)C [Compound 6, Trans-2-decenoic acid isopropyl ester] | 10.2% | 
5 | CCCCCCC/C=C/C(=O)OCCCC [Compound 7, Trans-2-decenoic acid butyl ester] | 22.7% | 
6 | CCCCCCC/C=C/C(=O)OC(C)(C)C [Compound 10, Trans-2-decenoic acid tert-butyl ester] | 50% | 
7 | CCCCCCC/C=C/C(=O)OCCCCCC [Compound 11, Trans-2-decenoic acid hexyl ester] | 60.8% | 
8 | CCCCCCC/C=C/C(=O)OCCCCCCC [Compound 12, Trans-2-decenoic acid heptyl ester] | 21.3% | 
9 | CCCCCCC/C=C/C(=O)OCCCCCCCCCC [Compound 14, Trans-2-decenoic acid decyl ester] | 32.2% | 
10 | CCCCCCC/C=C/COC(=O)/C=C/CCCCCCC [Compound 16, Trans-2-decenoic acid trans-2-decenyl ester] | 94.4% | 
11 | C=CCCCCCCCCOC(=O)/C=C/CCCCCCC [Compound 17, Trans-2-decenoic acid trans-9-decenyl ester] | 54% | 
12 | CCCCCCC/C=C/C(=O)OC1CCCCC1 [Compound 18, Trans-2-decenoic acid cyclohexyl ester] | 15.8% | 
13 | CCCCCC/C=C/CC(=O)OCC [Compound 20, Trans-3-decenoic acid ethyl ester] | 14.7% | 
14 | C=CCCCCCCCC(=O)OCC [Compound 22, Trans-9-decenoic acid ethyl ester] | 67.9% | 
15 | CCCCCCC/C=C/C(=O)O [trans-2-decenoic acid, reference compound] |  | no difference from the onset control group
